Converted amounts (≈) assume the structure as drawn.
What was measured:
FAP [1] = target: T1, FAP (Homo sapiens (Human), UniProt Q12884); test: hFAP inhibition assay; format: biochemical; settings: hFAP […], Ala-Pro-AMC 20 μM; n = 1 or geometric mean n = 2-3
In short: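 Human FAP (0.48 nM) in 100 mM Tris HCl, 100 mM NaCl, 0.05% Chaps, pH 7.4 was preincubated 15 min at rt in the dark with compounds (10-point, 3-fold series from 50 μM). Substrate was added from a 40 μM solution, then 30 min at rt. Fluorescence read at ex 340/em 460 nm; IC50 from one-site dose-response fit of % inhibition.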
Target sequence in this assay (Q12884 38-760): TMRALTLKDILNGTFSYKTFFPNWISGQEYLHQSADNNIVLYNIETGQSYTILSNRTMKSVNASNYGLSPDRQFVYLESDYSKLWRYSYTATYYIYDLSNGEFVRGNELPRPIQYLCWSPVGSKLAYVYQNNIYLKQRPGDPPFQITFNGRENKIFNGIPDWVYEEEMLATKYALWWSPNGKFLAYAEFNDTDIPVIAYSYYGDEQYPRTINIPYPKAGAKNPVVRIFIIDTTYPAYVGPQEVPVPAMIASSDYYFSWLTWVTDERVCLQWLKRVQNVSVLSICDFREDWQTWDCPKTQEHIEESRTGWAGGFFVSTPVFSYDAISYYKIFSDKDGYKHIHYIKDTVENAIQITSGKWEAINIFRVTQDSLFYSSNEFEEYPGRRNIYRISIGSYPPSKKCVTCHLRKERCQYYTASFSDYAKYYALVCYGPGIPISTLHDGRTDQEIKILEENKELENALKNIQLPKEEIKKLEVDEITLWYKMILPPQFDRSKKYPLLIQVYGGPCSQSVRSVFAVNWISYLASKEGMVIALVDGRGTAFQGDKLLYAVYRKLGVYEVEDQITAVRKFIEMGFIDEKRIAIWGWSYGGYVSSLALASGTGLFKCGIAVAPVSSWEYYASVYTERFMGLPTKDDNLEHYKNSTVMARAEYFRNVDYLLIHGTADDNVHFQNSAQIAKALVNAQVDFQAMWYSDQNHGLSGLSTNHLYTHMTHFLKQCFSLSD

[2] = target: human Fibroblast activation protein alpha (hFAP) (Homo sapiens (Human), UniProt Q12884); test: hFAP inhibition assay (tight binders); format: biochemical; settings: Ala-Pro-AMC 20 μM, n = 1 or geometric mean n = 2-6; note: hFAP 2.4 pM
Procedure: The plates were read on a PHERAstar® reader with excitation 340 nm and emission 460 nm. Data were analyzed in Genedata Screener®. IC50 values were determined by plotting % inhibition versus log compound concentration and using a one site dose response model.

hFAP (M39-A757) = hFAP (M39-A757) (Homo sapiens (Human), UniProt Q12884); test: hFAP binding assay (surface plasmon resonance); settings: SPR, 20° C.; for hFAP Binding assay k(off) / hFAP Binding assay k(on): single cycle kinetics; for Kd: n = 1 or geometric mean n = 2-4
FAP [3] = target: T1, FAP; test: FAP plasma inhibition assay, human plasma; format: biochemical; settings: human plasma diluted 1:40, Ala-Pro-AMC 75 μM
Procedure: (§1) This assay was adapted from the method described in Example 237 for detection of FAP target engagement enzyme activity in plasma. Plasma (anticoagulant K2EDTA) was used as the enzyme source: Human plasma (Pooled from AZ Biobank), Mouse plasma (AZ AST Biobank), and Cynomolgus plasma (BioIVT, #NHP00PLK2FNN, lot CYN222895). 384-Well black fluotrack PS plates (Greiner 781076) were used. 20 μL diluted plasma (Cynomolgus and Human plasma dilution 1:40, Mouse plasma dilution 1:67) in buffer (PBS, 0.1% BSA) was added to 0.6 μL compounds (in DMSO). Compounds were tested using 10 CR, 3 fold dilution series from 500 nM FAC. Two replicates for each assay point were run on the same plate. A fluorescence blank read was taken before substrate addition. […] Plates were incubated for 40 min at rt in the dark. […] IC50 values were determined by plotting % inhibition versus log compound concentration.
Target sequence in this assay (Q12884 24-760): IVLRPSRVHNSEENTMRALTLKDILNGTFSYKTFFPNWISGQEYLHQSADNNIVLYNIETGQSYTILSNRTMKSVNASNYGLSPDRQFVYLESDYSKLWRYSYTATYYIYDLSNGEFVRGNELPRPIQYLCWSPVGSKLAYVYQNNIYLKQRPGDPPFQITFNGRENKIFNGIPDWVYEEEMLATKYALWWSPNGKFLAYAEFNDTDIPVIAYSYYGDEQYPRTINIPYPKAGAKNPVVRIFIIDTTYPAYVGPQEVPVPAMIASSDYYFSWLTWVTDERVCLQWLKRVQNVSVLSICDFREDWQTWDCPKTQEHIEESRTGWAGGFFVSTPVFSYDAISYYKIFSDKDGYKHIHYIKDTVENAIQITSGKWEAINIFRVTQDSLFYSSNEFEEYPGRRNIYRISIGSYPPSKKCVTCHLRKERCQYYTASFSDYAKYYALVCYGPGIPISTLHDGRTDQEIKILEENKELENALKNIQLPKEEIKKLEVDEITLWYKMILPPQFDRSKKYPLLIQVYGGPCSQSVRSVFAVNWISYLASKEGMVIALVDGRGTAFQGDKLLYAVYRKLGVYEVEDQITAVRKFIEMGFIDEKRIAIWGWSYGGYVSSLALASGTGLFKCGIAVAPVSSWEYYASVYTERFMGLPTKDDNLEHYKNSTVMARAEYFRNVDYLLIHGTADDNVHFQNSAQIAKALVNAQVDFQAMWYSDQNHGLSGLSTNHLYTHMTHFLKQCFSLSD

FAP [4] = target: FAP (Mus musculus (Mouse), UniProt P97321); test: FAP plasma inhibition assay, mouse plasma; format: biochemical; settings: mouse plasma diluted 1:67, Ala-Pro-AMC 75 μM
Procedure: as §1

[5] = target: Prolyl endopeptidase, Prolyl Oligopeptidase (hPREP) (Homo sapiens (Human), UniProt P48147); test: hPrep inhibition assay; format: biochemical; settings: hPREP 0.6 nM, Z-Gly-Pro-amino-methylcoumarin 50 μM; read-out: PREP IC50
In short: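 Recombinant human PREP at 0.6 nM final with Z-Gly-Pro-AMC substrate at 50 μM final in Tris-HCl pH 7.5, NaCl, Triton X-100, glutathione; 15 min rt preincubation then 20 min rt reaction in dark. AMC fluorescence (ex 340/em 460 nm); IC50 from one-site dose-response fit of % inhibition.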

[6] = Metabolic stability in human hepatocytes (hHep); format: in vitro ADME; settings: n = 1 or geometric mean of n = 2
Kinetic solubility = settings: kinetic from dmso stock
Procedure: Kinetic solubility was measured as described in Comput Aided Mol Des 2015, 29, 795.

Caco-2 cell permeability = settings: human
Procedure: Caco-2 cell permeability was measured as described in Mol Pharm 2017, 14, 1601.

[7] = Metabolic stability in rat hepatocytes (rHep); settings: n = 1 or geometric mean of n = 2-3
[8] = Metabolic stability in human liver microsomes (HLM); settings: human
Procedure: Metabolic stability in HLM was measured as described in J Comput Aided Mol Des 2015, 29, 795.

[9] = target: human dipeptidylpeptidase 7 (hDPP7) (Homo sapiens (Human), UniProt Q9UHL4); test: hDPP7 inhibition assay; format: biochemical; settings: hDPP7 15 nM, Ala-Pro-amino-methylcoumarin 5 μM, n = 1
Procedure: Compounds were tested in a biochemical inhibition assay using human dipeptidylpeptidase 7 (hDPP7) enzyme at 15 nM FAC (BPS Bioscience, #80070) and the substrate Ala-Pro-amino-methylcoumarin (BPS Bioscience, #80305) at 5 μM FAC. The enzymatic reactions were conducted in duplicate at rt for 30 min in 50 μL DPP assay buffer (BPS Bioscience, #80300). Compound solutions (in DMSO) at 10 CR, 3 fold dilution series were prepared in assay buffer ten-fold higher than the final concentration, and 5 μL of the dilution was added to a 50 μL reaction so that the highest compound concentration was 100 μM FAC and the concentration of DMSO was 1% in all wells. The plates were read on a Tecan Infinite M1000 microplate reader with excitation 340 nm and emission 460 nm. Data were analyzed in Graph Pad Prism. IC50 values were determined by plotting % inhibition versus log compound concentration and using a one site dose response model. Raw data signals were normalized using 1% DMSO as 0% control and no enzyme as 100% inhibitor control.

[10] = Solubility, kinetic solubility, n = 1 or average of n = 2-3
[11] = HLM CLint, n = 1 or average of n = 2-3

Sequence of FAP (Mus musculus (Mouse), UniProt P97321) (P97321 24-761): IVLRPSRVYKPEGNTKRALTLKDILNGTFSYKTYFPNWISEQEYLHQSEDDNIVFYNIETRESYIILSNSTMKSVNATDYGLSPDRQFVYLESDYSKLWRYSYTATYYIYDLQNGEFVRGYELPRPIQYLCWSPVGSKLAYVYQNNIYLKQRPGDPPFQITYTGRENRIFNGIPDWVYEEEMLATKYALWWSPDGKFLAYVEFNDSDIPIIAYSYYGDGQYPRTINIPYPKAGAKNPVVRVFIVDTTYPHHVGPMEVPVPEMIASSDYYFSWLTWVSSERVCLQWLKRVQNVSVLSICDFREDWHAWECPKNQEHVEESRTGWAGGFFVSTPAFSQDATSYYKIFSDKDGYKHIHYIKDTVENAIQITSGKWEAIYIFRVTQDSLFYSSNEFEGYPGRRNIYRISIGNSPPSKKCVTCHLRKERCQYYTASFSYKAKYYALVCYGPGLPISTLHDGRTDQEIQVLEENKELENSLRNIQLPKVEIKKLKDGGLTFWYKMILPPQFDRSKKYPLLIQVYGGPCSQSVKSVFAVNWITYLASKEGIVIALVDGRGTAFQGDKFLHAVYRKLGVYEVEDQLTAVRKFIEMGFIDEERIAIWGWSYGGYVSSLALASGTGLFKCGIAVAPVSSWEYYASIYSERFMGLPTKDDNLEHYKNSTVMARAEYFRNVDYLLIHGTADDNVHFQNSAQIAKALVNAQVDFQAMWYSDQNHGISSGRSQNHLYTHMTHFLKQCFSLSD
Sequence of Prolyl endopeptidase, Prolyl Oligopeptidase (hPREP) (P48147 whole entry): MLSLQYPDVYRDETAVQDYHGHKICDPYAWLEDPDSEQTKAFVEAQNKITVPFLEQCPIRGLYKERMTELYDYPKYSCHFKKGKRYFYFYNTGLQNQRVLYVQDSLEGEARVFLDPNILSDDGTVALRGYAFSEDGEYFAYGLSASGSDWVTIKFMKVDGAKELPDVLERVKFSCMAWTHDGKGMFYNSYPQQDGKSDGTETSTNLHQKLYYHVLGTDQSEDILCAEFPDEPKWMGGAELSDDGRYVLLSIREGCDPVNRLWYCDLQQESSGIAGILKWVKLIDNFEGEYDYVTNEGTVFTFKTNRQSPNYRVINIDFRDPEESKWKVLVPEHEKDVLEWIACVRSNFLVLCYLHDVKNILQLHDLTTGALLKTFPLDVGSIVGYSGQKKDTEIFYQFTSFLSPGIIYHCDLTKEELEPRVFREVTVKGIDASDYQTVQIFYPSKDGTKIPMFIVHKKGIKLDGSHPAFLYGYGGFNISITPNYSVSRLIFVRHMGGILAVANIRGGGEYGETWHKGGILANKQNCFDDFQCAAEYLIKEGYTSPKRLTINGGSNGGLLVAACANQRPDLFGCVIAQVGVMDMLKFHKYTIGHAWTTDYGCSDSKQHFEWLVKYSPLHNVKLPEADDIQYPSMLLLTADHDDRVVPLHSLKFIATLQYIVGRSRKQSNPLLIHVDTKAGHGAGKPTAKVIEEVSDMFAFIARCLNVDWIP
Sequence of hFAP (M39-A757) (Q12884 39-757): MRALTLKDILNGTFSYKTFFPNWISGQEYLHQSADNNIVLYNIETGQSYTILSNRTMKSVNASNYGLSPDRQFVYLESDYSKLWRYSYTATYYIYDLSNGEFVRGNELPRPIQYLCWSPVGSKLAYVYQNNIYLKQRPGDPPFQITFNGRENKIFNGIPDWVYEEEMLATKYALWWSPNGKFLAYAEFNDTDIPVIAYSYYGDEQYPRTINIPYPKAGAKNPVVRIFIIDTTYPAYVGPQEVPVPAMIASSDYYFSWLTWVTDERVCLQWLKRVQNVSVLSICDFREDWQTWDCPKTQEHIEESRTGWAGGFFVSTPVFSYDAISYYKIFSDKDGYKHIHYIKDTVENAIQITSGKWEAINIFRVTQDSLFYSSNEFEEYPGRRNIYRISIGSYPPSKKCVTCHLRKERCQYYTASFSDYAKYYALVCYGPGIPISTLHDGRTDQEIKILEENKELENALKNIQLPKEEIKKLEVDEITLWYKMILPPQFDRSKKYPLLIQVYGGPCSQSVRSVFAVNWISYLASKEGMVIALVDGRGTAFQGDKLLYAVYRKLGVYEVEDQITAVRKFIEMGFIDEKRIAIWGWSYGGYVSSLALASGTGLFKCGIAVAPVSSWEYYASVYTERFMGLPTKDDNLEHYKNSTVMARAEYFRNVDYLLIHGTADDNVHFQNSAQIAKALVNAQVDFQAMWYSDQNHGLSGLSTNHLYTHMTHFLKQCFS
Sequence of human Fibroblast activation protein alpha (hFAP) (Q12884 38-760): as the sequence (Q12884 38-760) above

| Structure (SMILES) | IC50 (FAP [1]) | IC50 [2] | hFAP Binding assay k(off) (hFAP (M39-A757)) | hFAP Binding assay k(on) (hFAP (M39-A757)) | Kd (hFAP (M39-A757)) | IC50 (FAP [3]) | IC50 (FAP [4]) | IC50 [5] | hHep CLint [6] | solubility (Kinetic solubility; [10]) | Papp (Caco-2 cell permeability) | Papp A→B (Caco-2 cell permeability) | Papp B→A (Caco-2 cell permeability) | efflux ratio (Caco-2 cell permeability) | rHep CLint [7] | microsomal CLint [8, 11] | IC50 [9] | solubility (Kinetic solubility) | microsomal CLint [8] |
| --- | --- | --- | --- | --- | --- | --- | --- | --- | --- | --- | --- | --- | --- | --- | --- | --- | --- | --- | --- |
| N#C[C@@H]1CSCN1C(=O)CNC(=O)c1ccnc2ccc(N3C[C@@H](F)[C@@H](F)C3)cc12 [Example 50, N-(2-((R)-4-Cyanothiazolidin-3-yl)-2-oxoethyl)-6-((3R,4S)-3,4-difluoropyrrolidin-1-yl)quinoline-4-carboxamide] | 0.34 nM | 0.069 nM | – | – | 0.071 nM | 0.3 nM | 0.5 nM | 540 nM | 1.7 μL/min/1E6 | 33 µM (≈ 14.2 µg/mL) | – | 0.83 ×10⁻⁶ cm/s | 27 ×10⁻⁶ cm/s | 32 | 20 μL/min/1E6 | 13 µL/min/mg | – | – | – |
| N#C[C@@H]1CSCN1C(=O)CNC(=O)c1ccnc2ccc(N3C4CCC3COC4)cc12 [Example 98, 6-(3-Oxa-8-azabicyclo[3.2.1]octan-8-yl)-N-(2-((R)-4-cyanothiazolidin-3-yl)-2-oxoethyl)quinoline-4-carboxamide] | 0.27 nM | 0.11 nM | 0.000015 s⁻¹ | 1600000 M⁻¹ s⁻¹ | 0.0088 nM | 0.2 nM | 0.4 nM | 790 nM | 1.8 μL/min/1E6 | > 1000 µM | 8.6 ×10⁻⁶ cm/s | 0.71 ×10⁻⁶ cm/s | 18 ×10⁻⁶ cm/s | 25 | 13 μL/min/1E6 | 26 µL/min/mg | – | – | – |
| N#C[C@@H]1CSCN1C(=O)CNC(=O)c1ccnc2ccc(N3CCC4(CCCCC4)OC3=O)cc12 [Example 110, (R)—N-(2-(4-cyanothiazolidin-3-yl)-2-oxoethyl)-6-(2-oxo-1-oxa-3-azaspiro[5.5]undecan-3-yl)quinoline-4-carboxamide] | – | – | – | – | – | – | – | – | – | – | – | – | – | – | 3.3 μL/min/1E6 | – | > 100000 nM | 950 µM (≈ 469 µg/mL) | 39 µL/min/mg |
| N#C[C@@H]1CSCN1C(=O)CNC(=O)c1ccnc2ccc(N3CCC4(CCCC4)OC3=O)cc12 [Example 111, (R)—N-(2-(4-cyanothiazolidin-3-yl)-2-oxoethyl)-6-(7-oxo-6-oxa-8-azaspiro[4.5]decan-8-yl)quinoline-4-carboxamide] | – | – | – | – | – | – | – | – | – | – | – | – | – | – | – | – | > 100000 nM | – | – |
| N#C[C@@H]1CSCN1C(=O)CNC(=O)c1ccnc2ccc(N3CC4(COC4)C3)cc12 [Example 166, (R)—N-(2-(4-Cyanothiazolidin-3-yl)-2-oxoethyl)-6-(2-oxa-6-azaspiro[3.3]heptan-6-yl)quinoline-4-carboxamide] | 0.34 nM | 0.22 nM | 0.000049 s⁻¹ | 2200000 M⁻¹ s⁻¹ | 0.03 nM | 0.3 nM | 0.6 nM | 1700 nM | <1 μL/min/1E6 | – | 2 ×10⁻⁶ cm/s | 0.56 ×10⁻⁶ cm/s | 13 ×10⁻⁶ cm/s | 24 | <1 μL/min/1E6 | – | – | > 910 µM | < 3 µL/min/mg |

More lines, main results first:

| IC50 (FAP [1]) | IC50 [2] | hFAP Binding assay k(off) (hFAP (M39-A757)) | hFAP Binding assay k(on) (hFAP (M39-A757)) | Kd (hFAP (M39-A757)) | IC50 (FAP [3]) | IC50 (FAP [4]) | IC50 [5] | hHep CLint [6] | solubility (Kinetic solubility; [10]) | Papp (Caco-2 cell permeability) | Papp A→B (Caco-2 cell permeability) | Papp B→A (Caco-2 cell permeability) | efflux ratio (Caco-2 cell permeability) | rHep CLint [7] | microsomal CLint [8, 11] | Structure (SMILES) | IC50 [9] | solubility (Kinetic solubility) | microsomal CLint [8] |
| --- | --- | --- | --- | --- | --- | --- | --- | --- | --- | --- | --- | --- | --- | --- | --- | --- | --- | --- | --- |
| 0.26 nM | 0.1 nM | 0.00011 s⁻¹ | 1100000 M⁻¹ s⁻¹ | 0.11 nM | 0.2 nM | 0.5 nM | 580 nM | 2.6 μL/min/1E6 | 73 µM (≈ 31.5 µg/mL) | 21 ×10⁻⁶ cm/s | 1.6 ×10⁻⁶ cm/s | 20 ×10⁻⁶ cm/s | 12 | 13 μL/min/1E6 | < 3 µL/min/mg | N#C[C@@H]1CSCN1C(=O)CNC(=O)c1ccnc2ccc(N3CC(C(F)F)C3)cc12 [Example 28, (R)—N-(2-(4-Cyanothiazolidin-3-yl)-2-oxoethyl)-6-(3-(difluoromethyl)-azetidin-1-yl)quinoline-4-carboxamide] | – | – | – |
| – | 0.094 nM | 0.00016 s⁻¹ | 1100000 M⁻¹ s⁻¹ | 0.14 nM | 0.2 nM | 0.3 nM | 2300 nM | <1 μL/min/1E6 | 180 µM (≈ 86.3 µg/mL) | – | 1.8 ×10⁻⁶ cm/s | 53 ×10⁻⁶ cm/s | 29 | 13 μL/min/1E6 | 28 µL/min/mg | N#C[C@@H]1CSCN1C(=O)CNC(=O)c1ccnc2ccc(N3CCO[C@H](C(F)(F)F)C3)cc12 [Example 74, N-(2-((R)-4-Cyanothiazolidin-3-yl)-2-oxoethyl)-6-((S)-2-(trifluoromethyl)-morpholino)quinoline-4-carboxamide] | – | – | – |
| 0.31 nM | 0.074 nM | 0.00034 s⁻¹ | 4200000 M⁻¹ s⁻¹ | 0.082 nM | 0.2 nM | 0.3 nM | 1200 nM | <1 μL/min/1E6 | > 980 µM | 13 ×10⁻⁶ cm/s | 1.3 ×10⁻⁶ cm/s | 29 ×10⁻⁶ cm/s | 23 | 8.6 μL/min/1E6 | 22 µL/min/mg | CC1(C)CN(c2ccc3nccc(C(=O)NCC(=O)N4CSC[C@H]4C#N)c3c2)CCO1 [Example 88, (R)—N-(2-(4-Cyanothiazolidin-3-yl)-2-oxoethyl)-6-(2,2-dimethyl-morpholino)quinoline-4-carboxamide] | – | – | – |
| – | 0.37 nM | 0.00012 s⁻¹ | 1900000 M⁻¹ s⁻¹ | 0.065 nM | 0.3 nM | 0.6 nM | 1200 nM | <1 μL/min/1E6 | 62 µM (≈ 26.8 µg/mL) | – | 2 ×10⁻⁶ cm/s | 29 ×10⁻⁶ cm/s | 15 | <1 μL/min/1E6 | 7.3 µL/min/mg | N#C[C@@H]1CSCN1C(=O)CNC(=O)c1ccnc2ccc(N3CC(F)(CF)C3)cc12 [Example 157, (R)—N-(2-(4-Cyanothiazolidin-3-yl)-2-oxoethyl)-6-(3-fluoro-3-(fluoromethyl)azetidin-1-yl)quinoline-4-carboxamide] | – | – | – |
| 0.4 nM | 0.22 nM | 0.000014 s⁻¹ | 950000 M⁻¹ s⁻¹ | 0.015 nM | 0.2 nM | 0.6 nM | 1100 nM | <1 μL/min/1E6 | 930 µM (≈ 432 µg/mL) | 0.1 ×10⁻⁶ cm/s | 0.25 ×10⁻⁶ cm/s | 0.78 ×10⁻⁶ cm/s | 3.1 | <1 μL/min/1E6 | < 3 µL/min/mg | CC(=O)N1CC2(C1)CN(c1ccc3nccc(C(=O)NCC(=O)N4CSC[C@H]4C#N)c3c1)C2 [Example 184, (R)-6-(6-Acetyl-2,6-diazaspiro[3.3]heptan-2-yl)-N-(2-(4-cyanothiazolidin-3-yl)-2-oxoethyl)quinoline-4-carboxamide] | – | – | – |
